Measurements taken from PubChem BioAssay (NCI).
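Briefly, cells in 96-well plates were exposed to five compound concentrations for 48 h, and endpoints were estimated by linear interpolation. At the TGI there is no net growth.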

Legend:
Assay in all cases: inhibition of tumour cell growth, NCI panel, 48 h
SK-OV-3 ovarian = tested on: SK-OV-3 ovarian
RXF-631 renal = tested on: RXF-631 renal
OVCAR-4 ovarian = tested on: OVCAR-4 ovarian
KM12 colon = tested on: KM12 colon
HOP-92 NSCLC = tested on: HOP-92 NSCLC
SF-539 CNS = tested on: SF-539 CNS
HCC-2998 colon = tested on: HCC-2998 colon
TK-10 renal = tested on: TK-10 renal
SK-MEL-5 melanoma = tested on: SK-MEL-5 melanoma
K-562 leukemia = tested on: K-562 leukemia
CAKI-1 renal = tested on: CAKI-1 renal
HCT-15 colon = tested on: HCT-15 colon
LXFL 529 NSCLC = tested on: LXFL 529 NSCLC
SN12C renal = tested on: SN12C renal
U251 CNS = tested on: U251 CNS
HOP-62 NSCLC = tested on: HOP-62 NSCLC
COLO 205 colon = tested on: COLO 205 colon
MOLT-4 leukemia = tested on: MOLT-4 leukemia
UO-31 renal = tested on: UO-31 renal
NCI-H226 lung = tested on: NCI-H226 lung
DMS 273 small cell lung = tested on: DMS 273 small cell lung
M19-MEL melanoma = tested on: M19-MEL melanoma
HL-60(TB) leukemia = tested on: HL-60(TB) leukemia
KM20L2 colon = tested on: KM20L2 colon
HCT-116 colon = tested on: HCT-116 colon
ACHN renal = tested on: ACHN renal
OVCAR-8 ovarian = tested on: OVCAR-8 ovarian
SNB-75 CNS = tested on: SNB-75 CNS
A498 renal = tested on: A498 renal
786-0 renal = tested on: 786-0 renal
UACC-257 melanoma = tested on: UACC-257 melanoma
SW-620 colon = tested on: SW-620 colon
SK-MEL-2 melanoma = tested on: SK-MEL-2 melanoma
OVCAR-3 ovarian = tested on: OVCAR-3 ovarian
M14 melanoma = tested on: M14 melanoma
DLD-1 colon = tested on: DLD-1 colon
NCI-H460 lung = tested on: NCI-H460 lung
CCRF-CEM leukemia = tested on: CCRF-CEM leukemia
SF-295 CNS = tested on: SF-295 CNS
SR leukemia = tested on: SR leukemia
XF 498 CNS = tested on: XF 498 CNS
SNB-19 CNS = tested on: SNB-19 CNS
HOP-18 NSCLC = tested on: HOP-18 NSCLC
SK-MEL-28 melanoma = tested on: SK-MEL-28 melanoma
UACC-62 melanoma = tested on: UACC-62 melanoma
OVCAR-5 ovarian = tested on: OVCAR-5 ovarian
RPMI-8226 leukemia = tested on: RPMI-8226 leukemia
MALME-3M melanoma = tested on: MALME-3M melanoma
IGROV1 ovarian = tested on: IGROV1 ovarian
A549 NSCLC = tested on: A549 NSCLC
DMS 114 small cell lung = tested on: DMS 114 small cell lung
LOX IMVI melanoma = tested on: LOX IMVI melanoma
HT29 colon = tested on: HT29 colon
EKVX NSCLC = tested on: EKVX NSCLC
SNB-78 CNS = tested on: SNB-78 CNS
NCI-H23 lung = tested on: NCI-H23 lung
RXF 393 renal = tested on: RXF 393 renal
NCI-H522 lung = tested on: NCI-H522 lung
SF-268 CNS = tested on: SF-268 CNS

Measured: TGI

CCOC(=O)NC(=O)c1c[nH]c(=O)[nH]c1=O
not listed: RXF 393 renal | NCI-H522 lung | SF-268 CNS
> 100 µM: all other assays above

C#CCN(C)C(=O)N(CC#C)N=O
not listed: HCC-2998 colon | CAKI-1 renal | NCI-H226 lung | SR leukemia | XF 498 CNS
> 100 µM: all other assays above
